According to publication PMC3954757, “Novel Potent Imidazo[1,2-a]pyridine-N-Glycinyl-Hydrazone Inhibitors of TNF-α Production: In Vitro and In Vivo Studies” (PLoS ONE, 2014):
Values joined by “and” are separate entries in the source; they are usually repeats but may differ in a detail not shown here. Equal values may be shown once.

Assays:
p38α MAPK = p38α MAPK (Homo sapiens, UniProt Q16539); experiment: p38α MAPK activity, nonradioactive immunosorbent assay; assay type: biochemical
Protocol: Because the novel N-acylhydrazone derivatives 1 were designed based on the p38α MAPK inhibitor BIRB-796 (3), some of them were evaluated for their in vitro capacity to inhibit p38α MAPK activity at a concentration of 10 µM.
*This assay was performed as described by Goettert MR, Graeser, Laufer SA (2010) Optimization of a nonradioactive immunosorbent assay for p38 alpha mitogen-activated protein kinase activity. Anal Biochem 406: 233–234.

TNF-α production [1] = experiment: LPS-induced TNF-α production in culture of mice peritoneal macrophage (ELISA); details: Mus musculus; for inhibition at 10 µM: 24 h, read-out: TNF-α % inhibition at 10 µM; for IC50: read-out: TNF-α IC50
Protocol: BALBc mice received thyoglicollate 3% (1 mL/mice; i.p.) and 3 days later the peritoneal cavities were washed with RPMI 1640 culture medium (Sigma, USA, supplemented with 10% fetal bovine serum). The peritoneal macrophages were plated onto 96-wells plate (30.000 cells/well) for 1 hour at 37°C in a humidified 5% CO2 atmosphere. Then, macrophages were incubated with the vehicle or compounds and 1 hour later stimulated with LPS(100 ng/mL) for 24 hours when the supernatants were collected to evaluate TNF-α production by ELISA kit (B&D Bioscience, USA).

[2] = system: murine peritoneal macrophages; experiment: Cell viability by MTT assay; assay type: cell-based, mouse; details: for IC50: Mus musculus, Peritoneal macrophage, MTT cytotoxicity, concentration range 0.1–100 µM; for Selectivity Index (SI): SI = cytotoxicity IC50/anti-TNF-α IC50
Protocol: (§1) The peritoneal macrophage were obtained and plated as described above. The cells were incubated with the vehicle or compounds for 20 hours when was added 200 µL of RPMI medium containing 0.5 mg/mL MTT […] (3-(4,5-dimethylthiazol-2-yl)-2,5-diphenyltetrazolium bromide) followed by 4 hour of incubation at 37°C in a 5% CO2 atmosphere. After incubation supernatants were discarded and 200 µL DMSO (dimethylsulfoxide) were added to solubilize the MTT-formazan crystals. The optical density was measured in a microplate reader at 490 nm. The control groups consisted of cells with medium plus vehicle used to dissolve the substances and was considered as 100% of viable cells. Results are expressed as percentage of viable cells when compared with control groups.

[3] = Cell viability by MTT assay; assay type: cell-based, mouse; details: mouse, peritoneal macrophages; 10 µM; MTT; compared to vehicle (DMSO)
Protocol: as §1

TNF-α production [4] = experiment: Subcutaneous air pouch (SAP) model, TNF-α in exudate; assay type: in vivo, mice; details: 1i oral pre-treatment, carrageenan 1% SAP
Text: Because compound 1i provided a better balance between the IC50 value for TNF-α production and cellular toxicity in vitro, we evaluated its effects in the subcutaneous air pouch (SAP) model, an in vivo model of inflammation and TNF production, [28].
(§2) Figure 4 Effect of compound 1i on TNF-α production. Twenty-four hours prior to carrageenan (1%) injection into the subcutaneous air pouch (SAP), animals were pretreated by oral administration with different doses of a solution of 1i. The results are presented as the mean ± S. D. (n = 6–10) of TNF-α (pg/mL). Statistical significance was calculated by ANOVA followed by Bonferroni’s test. * indicates p<0.005 for the comparison of 1i -treated mice with the vehicle-treated group; # indicates p<0.005 for the comparison of vehicle-treated mice with the PBS-treated group.
(§3) The experimental protocol was similar to that described by Romano and colleagues (1997) with several modifications described by Raymundo and colleagues (2011). The animals received a dorsal subcutaneous injection of sterile air (10 mL) on three alternate days to induce the SAP. On the sixth day, animals received a subcutaneous injection of sterile carrageenan suspension (1%; 1 mL). Mice were pre-treated with vehicle (Polysorbate 80), 1i (3, 10, 30 and 100 µmol/kg) or dexamethasone (1.5 µmol/kg, i.p.) 1 h before carrageenan injection into the SAP. The control group received an injection of sterile PBS (1 mL) into the SAP. Animals were sacrificed 24 h after carrageenan injection. The cavity was washed with 1 mL of sterile PBS. Exudates were collected, centrifuged at 11,000 rpm for 10 min at 4°C and TNF-α accumulated was quantified. The cytokines quantification was done by enzyme-linked immunosorbent assay (ELISA) according to the manufacturer’s instructions (B&D, USA). The results are expressed as pg/mL of each cytokine. Animals were sacrificed after an exposition to a saturated carbon dioxide atmosphere in an appropriate gas chamber.

IFN-γ production = experiment: Subcutaneous air pouch (SAP) model, IFN-γ in exudate; assay type: in vivo, mice; details: oral
Protocol: (§4) We also measured the levels of the cytokines interferon-γ (IFN- γ) and interleukin 1β (IL-1β).
as §2, with “5” for “4”, “IL-1β and IFN-γ” for “TNF-α”, “each cytokine (ng/mL).” for “TNF-α (pg/mL).”
as §3

IL-1β production = experiment: Subcutaneous air pouch (SAP) model, IL-1β in exudate; assay type: in vivo, mice; details: oral
Protocol: as §4
as §2, with “5” for “4”, “IL-1β and IFN-γ” for “TNF-α”, “each cytokine (ng/mL).” for “TNF-α (pg/mL).”
as §3

Chain of p38α MAPK (Q16539 whole entry): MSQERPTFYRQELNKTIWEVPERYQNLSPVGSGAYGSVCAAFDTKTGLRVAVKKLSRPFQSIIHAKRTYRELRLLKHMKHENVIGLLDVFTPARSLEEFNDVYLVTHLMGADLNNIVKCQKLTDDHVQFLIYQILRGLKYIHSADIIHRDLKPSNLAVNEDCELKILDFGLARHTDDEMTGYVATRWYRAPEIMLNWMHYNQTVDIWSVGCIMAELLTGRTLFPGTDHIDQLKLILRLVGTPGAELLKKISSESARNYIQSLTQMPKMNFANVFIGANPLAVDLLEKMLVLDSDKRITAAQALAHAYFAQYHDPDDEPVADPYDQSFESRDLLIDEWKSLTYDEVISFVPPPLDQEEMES

| Structure (SMILES) | melting point | inhibition at 10 µM (p38α MAPK) [%] | inhibition at 10 µM (TNF-α production [1]) [%] | IC50 (TNF-α production [1]) [µM] | IC50 [2] [µM] | Selectivity Index (SI) [2] | viability at 20 h, 10 µM [3] [%] | further results |
| --- | --- | --- | --- | --- | --- | --- | --- | --- |
| CC(C)(C)c1nc2ccccn2c1NCC(=O)N/N=C/c1ccc(OCCN2CCOCC2)c2ccccc12 [Compound 1a, (E)-2-(2-tert-butylimidazo[1,2-a]pyridin-3-ylamino)-N’-((4-(2-morpholinoethoxy)naphthalen-1-yl)methylene)acetohydrazide] | 135 to 137 °C | 11.8 | 95.3 | 0.62 | 6.9 | 11.1 | 20.1 |  |
| CC(C)(C)c1nc2ccccn2c1NCC(=O)N/N=C/c1ccc(OCCN2CCOCC2)cc1 [Compound 1h, (E)-2-(2-tert-butylimidazo[1,2-a]pyridin-3-ylamino)-N’-(4-(2-morpholinoethoxy)benzylidene)acetohydrazide] |  |  | 2.8 |  |  |  | 100 |  |
| CC(C)(C)c1nc2ccccn2c1NCC(=O)N/N=C/c1ccccc1 [Compound 1g, (E)-N’-benzylidene-2-(2-tert-butylimidazo[1,2-a]pyridin-3-ylamino)acetohydrazide] | 230 to 232 °C |  | 5.6 |  |  |  | 100 |  |
| O=C(CNc1c(-c2ccccc2)nc2ccccn12)N/N=C/c1ccccc1 [Compound 1f, (E)-N’-benzylidene-2-(2-phenylimidazo[1,2-a]pyridin-3-ylamino)acetohydrazide] | 138 to 141 °C |  | 29.3 |  |  |  | 100 |  |
| O=C(CNc1c(-c2ccccc2)nc2ccccn12)N/N=C/c1ccc(OCCN2CCOCC2)cc1 [Compound 1c, (E)-N’-(4-(2-morpholinoethoxy)benzylidene)-2-(2-phenylimidazo[1,2-a]pyridin-3-ylamino)acetohydrazide] | 169 to 171 °C and 167 to 169 °C | 22.6 | 18.3 |  |  |  | 100 |  |
| O=C(CNc1c(-c2ccccc2)nc2ccccn12)N/N=C/c1ccc(O)c2ccccc12 [Compound 1j, (E)-N’-((4-hydroxynaphthalen-1-yl)methylene)-2-(2-phenylimidazo[1,2-a]pyridin-3-ylamino)acetohydrazide] | > 300 °C |  | 90.8 | 0.31 | 10.4 | 33.5 | 40 |  |
| O=C(CNc1c(-c2ccccc2)nc2ccccn12)N/N=C/c1ccc(O)cc1 [Compound 1d, (E)-N’-(4-hydroxybenzylidene)-2-(2-phenylimidazo[1,2-a]pyridin-3-ylamino) acetohydrazide] | 273 to 275 °C |  | 56.7 | 3.67 |  |  | 100 |  |
| CC(C)(C)c1cc(NCC(=O)N/N=C/c2ccc(OCCN3CCOCC3)c3ccccc23)n(-c2ccccc2)n1 [LASSBio-1504 (2), reference compound] |  |  | 96.9 | 3.6 | 10.3 | 2.8 | 61.5 |  |
| O=C(CNc1c(-c2ccccc2)nc2ccccn12)N/N=C/c1cccc2ccccc12 [Compound 1k, (E)-N’-(naphthalen-1-ylmethylene)-2-(2-phenylimidazo[1,2-a]pyridin-3-ylami-no)acetohydrazide] | 208 to 210 °C | 17.2 | 75.8 | 0.99 | 23.5 | 23.7 | 83.2 |  |
| CC(C)(C)c1nc2ccccn2c1NCC(=O)N/N=C/c1ccc(Cl)cc1 [Compound 1i, (E)-2-(2-tert-butylimidazo[1,2-a]pyridin-3-ylamino)-N’-(4-chlorobenzylidene) acetohydrazide] | 232 to 234 °C |  | 78 | 0.21 | 21.7 | 103.3 | 73.3 | reduction of TNF-α production (TNF-α production [4]; 3 µmol/kg): 96.8%; reduction of TNF-α production (TNF-α production [4]; 10 µmol/kg): 90.6%; reduction of TNF-α production (TNF-α production [4]; 30 µmol/kg): 97.3%; reduction of TNF-α production (TNF-α production [4]; 100 µmol/kg): 95.31%; inhibition of IFN-γ (IFN-γ production; 3 µmol/kg): 83.7%; inhibition of IFN-γ (IFN-γ production; 10 µmol/kg): 83%; inhibition of IFN-γ (IFN-γ production; 30 µmol/kg): 82.8%; inhibition of IFN-γ (IFN-γ production; 100 µmol/kg): 82.4%; reduction in IL-1β (IL-1β production; 3 µmol/kg): 81%; reduction in IL-1β (IL-1β production; 10 µmol/kg): 69.5%; reduction in IL-1β (IL-1β production; 30 µmol/kg): 74.7%; reduction in IL-1β (IL-1β production; 100 µmol/kg): 65.7% |
| O=C(CNc1c(-c2ccccc2)nc2ccccn12)N/N=C/c1ccc(OCCN2CCOCC2)c2ccccc12 [Compound 1b, (E)-N’-((4-(2-morpholinoethoxy)naphthalen-1-yl)methylene)-2-(2-phenylimidazo [1,2-a]pyridin-3-ylamino)acetohydrazide] | 105 to 108 °C | 6.5 | 77.3 | 0.34 | 14.7 | 43.2 | 78.4 |  |
| C[S+]([O-])c1ccc(-c2nc(-c3ccncc3)c(-c3ccc(F)cc3)[nH]2)cc1 (stereo not drawn) [SB-203580, reference compound] |  |  | 90 |  |  |  | 44.3 |  |
| O=C(CNc1c(-c2ccccc2)nc2ccccn12)N/N=C/c1ccc(Cl)cc1 [Compound 1e, (E)-N’-(4-chlorobenzylidene)-2-(2-phenylimidazo[1,2-a]pyridin-3-ylamino) acetohydrazide] | 122 to 124 °C and 120 to 122 °C |  | 53.8 | 3.05 |  |  | 100 |  |
